According to patent EP0114387A1, “Bis-guanidine compound salts, their preparation and microbicidal use” (HOECHST AKTIENGESELLSCHAFT, priority 1982, dated 1984):
≈ marks a conversion by molar mass, not a printed value. Read-outs that look alike come from different tables or passages of the source.

Key:
Assay in all cases: Microbicidal activity, minimum inhibitory concentration to kill 10^6 germs per ml
Type in all cases: cell-based
Conditions in all cases: room temperature, 10^6 Keime pro ml, read-out: minimale Hemmkonzentration
Candida albicans = test system: Candida albicans
Protocol: (§1) Die mikrobiozide Wirkung der erfindungsgemäßen Verbindungen zeigt Tabelle I (µg Wirkstoff/ml Wasser; Kontaktzeit 24 und 48 h; Raumtemperatur). Die angegebenen Zahlen bedeuten die minimalen Hemmkonzentrationen, um die vorgelegte Keimzahl von 10^6 Keimen pro ml abzutöten.

Staphylococcus aureus = test system: Staphylococcus aureus
Protocol: as §1

Klebsiella pneumoniae = test system: Klebsiella pneumoniae
Protocol: as §1

Aspergillus niger = test system: Aspergillus niger
Protocol: as §1

[1] = test system: Desulfovibrio desulfuricans 85
Protocol: as §1

Proteus mirabilis = test system: Proteus mirabilis
Protocol: as §1

Escherichia coli = test system: Escherichia coli
Protocol: as §1

Pseudomonas aeruginosa = test system: Pseudomonas aeruginosa
Protocol: as §1

[2] = test system: Desulfovibrio desulfuricans 39
Protocol: as §1

CCCCCCCCCCN(CCCNC(=N)N)CCCNC(=N)N [Beispiel 3]
MIC (Candida albicans; contact time 24 h): 250 µg/mL (≈ 703 µM) | MIC (Candida albicans; contact time 48 h): 62.5 µg/mL (≈ 176 µM) | MIC (Staphylococcus aureus; contact time 24 h): 250 µg/mL (≈ 703 µM) | MIC (Staphylococcus aureus; contact time 48 h): 62.5 µg/mL (≈ 176 µM) | MIC (Klebsiella pneumoniae; contact time 24 h): 500 µg/mL (≈ 1410 µM) | MIC (Klebsiella pneumoniae; contact time 48 h): 62.5 µg/mL (≈ 176 µM) | MIC (Aspergillus niger; contact time 24 h): > 1000 µg/mL | MIC (Aspergillus niger; contact time 48 h): > 1000 µg/mL | MIC ([1]; contact time 24 h): 7.8 µg/mL (≈ 21.9 µM) | MIC ([1]; contact time 48 h): 7.8 µg/mL (≈ 21.9 µM) | MIC (Proteus mirabilis; contact time 24 h): 250 µg/mL (≈ 703 µM) | MIC (Proteus mirabilis; contact time 48 h): 62.5 µg/mL (≈ 176 µM) | MIC (Escherichia coli; contact time 24 h): 250 µg/mL (≈ 703 µM) | MIC (Escherichia coli; contact time 48 h): 62.5 µg/mL (≈ 176 µM) | MIC (Pseudomonas aeruginosa; contact time 24 h): 500 µg/mL (≈ 1410 µM) | MIC (Pseudomonas aeruginosa; contact time 48 h): 62.5 µg/mL (≈ 176 µM) | MIC ([2]; contact time 24 h): 15.6 µg/mL (≈ 43.9 µM) | MIC ([2]; contact time 48 h): 7.8 µg/mL (≈ 21.9 µM)
